Source: patent publication US20060100431A1, “Biologically active compounds” (Amura Therapeutics Limited, priority 2002, published 2006)

Columns and labels:
human cathepsin B = biological target: T1, human cathepsin B (Homo sapiens, UniProt P07858); test: Cathepsin B peptidase activity assay (Ki); format: biochemical; details: read-out: Ki, inhibitors of cathepsin B
T1 construct: purchased CN Biosciences
Description: Unless otherwise stated, all general chemicals and biochemicals were purchased from either the Sigma Chemical Company, Poole, Dorset, U.K or from Fisher Scientific UK, Loughborough, Leicestershire, U.K. Absorbance assays were carried out in flat-bottomed 96-well plates (Spectra; Greiner Bio-One Ltd., Stonehouse, Gloucestershire, U.K.) using a SpectraMax PLUS384 plate reader (Molecular Devices, Crawley, U.K.). […] Fluorescence assays were monitored using a SpectraMax Gemini fluorescence plate reader (Molecular Devices). For substrates employing either a 7-amino-4-methylcoumarin (AMC) or a 7-amino-4-trifluoromethylcoumarin (AFC) fluorophore, assays were monitored at an excitation wavelength of 365 nm and an emission wavelength of 450 nm and the fluorescence plate reader calibrated with AMC. For substrates employing a 3-amino-benzoyl (Abz) fluorophore, assays were monitored at an excitation wavelength of 310 nm and an emission wavelength of 445 nm; the fluorescence plate reader calibrated with 3-amino-benzamide (Fluka). Unless otherwise indicated, all the peptidase substrates were purchased from Bachem UK, St Helens, Merseyside, UK. […] Hydroxyethylpiperazine ethanesulfonate (HEPES), tris-hydroxylmethyl aminomethane (tris) base, bis-tris-propane and all the biological detergents (e.g. CHAPS, zwittergents, etc.) were purchased from CN Biosciences UK, Beeston, Nottinghamshire, U.K. Glycerol was purchased from Amersham Pharmacia Biotech, Little Chalfont, Buckinghamshire, U.K. Stock solutions of substrate or inhibitor were made up to 10 mM in 100% dimethylsulfoxide (DMSO) (Rathburns, Glasgow, U.K.) and diluted as appropriately required. In all cases the DMSO concentration in the assays was maintained at less than 1% (vol./vol.).
Enzyme was added as required to initiate the reaction and the activity, as judged by the change in fluorescence upon conversion of substrate to product, was monitored over time. All assays were carried out at 25±1° C.
Bovine cathepsin S, human cathepsin L, human cathepsin H and human cathepsin B were obtained from CN Biosciences. Recombinant human cathepsin S, human cathepsin K and human cathepsin X were obtained from Dr. Boris Turk (Josef Stefan Institute, Ljubljana, Slovenia). Unless otherwise stated, all peptidase activity assays were carried out in 10 mM bis-tris-propane (BTP), pH 6.5 containing 1 mM EDTA, 5 mM 2-mercaptoethanol and 1 mM CaCl2.
The apparent inhibition constant (Ki) for each compound was determined on the basis that inhibition was reversible and occurred by a pure-competitive mechanism. […] [formula]
[formula] Ki^app=Ki(1+[So]/KM^app) (4)
Curves were fitted by non-linear regression analysis (Prism) using a fixed value for the enzyme concentration.

Wild-type cruzipain = Wild-type cruzipain (Trypanosoma cruzi, UniProt P25779); test: Trypanosoma cruzi cruzipain peptidase activity assay (Ki); format: biochemical; details: read-out: Ki, inhibitors of cruzain and cruzipains
In short: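 Native cruzipain from T. cruzi Dm28 epimastigotes, 2.5 nM, in 100 mM sodium phosphate pH 6.75 with 1 mM EDTA and 10 mM L-cysteine, 25 °C, DMSO <1%. Rates taken from continuous fluorogenic substrate read; Ki by regression assuming reversible pure-competitive inhibition.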

Sequence of Wild-type cruzipain (P25779 whole entry): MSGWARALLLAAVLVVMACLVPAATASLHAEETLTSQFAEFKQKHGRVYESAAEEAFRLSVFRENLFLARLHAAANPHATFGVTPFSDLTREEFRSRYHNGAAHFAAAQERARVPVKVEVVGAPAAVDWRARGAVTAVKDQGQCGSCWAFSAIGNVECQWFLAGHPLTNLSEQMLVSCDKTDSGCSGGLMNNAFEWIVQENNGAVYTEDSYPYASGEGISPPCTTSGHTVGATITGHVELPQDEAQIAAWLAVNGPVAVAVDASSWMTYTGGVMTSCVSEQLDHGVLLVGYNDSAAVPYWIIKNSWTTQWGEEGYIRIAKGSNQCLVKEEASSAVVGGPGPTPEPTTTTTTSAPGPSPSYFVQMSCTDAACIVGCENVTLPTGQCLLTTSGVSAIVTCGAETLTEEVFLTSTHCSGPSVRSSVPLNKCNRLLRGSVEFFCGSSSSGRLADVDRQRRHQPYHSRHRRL

Ki (human cathepsin B) [µM] | Ki (Wild-type cruzipain) [µM] | Structure (SMILES)
< 5 | – | O=C(N[C@@H](CSCc1ccccc1)C(=O)N1CC[C@@H]2[C@H]1C(=O)CN2C(=O)C12CC3CC(CC1C3)C2)c1ccsc1 [Example 266, (3aR,6aS)-Thiophene-3-carboxylic acid {(1R)-1-benzylsulfanylmethyl-2-[4-(hexahydro-2,5-methano-pentalene-3a-carbonyl)-6-oxo-hexahydro-pyrrolo[3,2-b]pyrrole-1-yl]-2-oxo-ethyl}-amide]
< 5 | – | O=C(N[C@@H](CSCc1ccccc1)C(=O)N1CC[C@@H]2[C@H]1C(=O)CN2C(=O)c1cccc([N+](=O)[O-])c1)c1ccsc1 [Example 264, (3aR,6aS)-Thiophene-3-carboxylic acid {(1R)-1-benzylsulfanylmethyl-2-[4-(3-nitro-benzoyl)-6-oxo-hexahydro-pyrrolo[3,2-b]pyrrole-1-yl]-2-oxo-ethyl}-amide]
< 5 | – | O=C(N[C@@H](CSCc1ccccc1)C(=O)N1CC[C@@H]2[C@H]1C(=O)CN2C(=O)c1ccc(O)cc1)c1ccsc1 [Example 267, (3aR,6aS)-Thiophene-3-carboxylic acid {(1R)-1-benzylsulfanylmethyl-2-[4-(4-hydroxy-benzoyl)-6-oxo-hexahydro-pyrrolo[3,2-b]pyrrol-1-yl]-2-oxo-ethyl}-amide]
< 5 | < 5 | O=C(N[C@@H](Cc1ccc(O)cc1)C(=O)N1CC[C@@H]2[C@H]1C(=O)CN2C(=O)c1cccc([N+](=O)[O-])c1)c1cccc(Br)c1 [Example 305, (3aR,6aS)-3-Bromo-N-{(1S)-1-(4-hydroxy-benzyl)-2-[4-(3-nitro-benzoyl)-6-oxo-hexahydro-pyrrolo[3,2-b]pyrrole-1-yl]-2-oxo-ethyl}-benzamide]
< 5 | < 5 | O=C(N[C@@H](Cc1ccc(O)cc1)C(=O)N1CC[C@@H]2[C@H]1C(=O)CN2C(=O)c1ccc(O)cc1)c1cccc(Br)c1 [Example 309, (3aR,6aS)-3-Bromo-N-[(1S)-2-[4-(4-hydroxy-benzoyl)-6-oxo-hexa hydro-pyrrolo[3,2-b]pyrrole-1-yl]-1-(4-hydroxy-benzyl)-2-oxo-ethyl]-benzamide]
< 5 | < 5 | O=C(N[C@@H](Cc1ccc(O)cc1)C(=O)N1CC[C@@H]2[C@H]1C(=O)CN2C(=O)c1ccccc1)c1cc2ccccc2s1 [Example 300, (3aR,6aS)-Benzo[b]thiophene-2-carboxylic acid [(1S)-2-(4-benzoyl-6-oxo-hexahydro-pyrrolo[3,2-b]pyrrole-1-yl)-1-(4-hydroxy-benzyl)-2-oxo-ethyl]-amide]
< 5 | < 5 | Cc1cccc(C(=O)N2CC(=O)[C@@H]3[C@H]2CCN3C(=O)[C@H](Cc2ccc(O)cc2)NC(=O)c2cccc(Br)c2)c1 [Example 327, (3aR,6aS)-3-Bromo-N-{(1S)-1-(4-hydroxy-benzyl)-2-[4-(3-methyl-benzoyl)-6-oxo-hexahydro-pyrrolo[3,2-b]pyrrol-1-yl]-2-oxo-ethyl}-benzamide]
< 5 | < 5 | O=C(N[C@@H](Cc1ccc(O)cc1)C(=O)N1CC[C@@H]2[C@H]1C(=O)CN2C(=O)C1CCCCC1)c1cccc(Br)c1 [Example 325, (3aR,6aS)-3-Bromo-N-[(1S)-2-(4-cyclohexanecarbonyl-6-oxo-hexahydro-pyrrolo[3,2-b]pyrrole-1-yl)-1-(4-hydroxy-benzyl)-2-oxo-ethyl]-benzamide]
< 5 | < 5 | O=C(N[C@@H](Cc1ccc(O)cc1)C(=O)N1CC[C@@H]2[C@H]1C(=O)CN2C(=O)C12CC3CC(CC(C3)C1)C2)c1cccc(Br)c1 [Example 307, (3aR,6aS)-N-[(1S)-2-[4-(Adamantane-1-carbonyl)-6-oxo-hexa hydro-pyrrolo[3,2-b]pyrrole-1-yl)-1-(4-hydroxy-benzyl)-2-oxo-ethyl]-3-bromo-benzamide]
< 5 | < 5 | O=C(N[C@@H](Cc1ccc(O)cc1)C(=O)N1CC[C@@H]2[C@H]1C(=O)CN2C(=O)c1ccccc1)c1nccc2ccccc12 [Example 299, (3aR,6aS)-Isoquinoline-1-carboxylic acid [(1S)-2-(4-benzoyl-6-oxo-hexahydro-pyrrolo[3,2-b]pyrrol-1-yl)-1-(4-hydroxy-benzyl)-2-oxo-ethyl]-amide]
< 5 | – | O=C(N[C@@H](CSCc1ccccc1)C(=O)N1CC[C@@H]2[C@H]1C(=O)CN2C(=O)c1ccccc1)c1csc2ccccc12 [Example 253, (3aR,6aS)-Benzo[b]thiophene-3-carboxylic acid [(1R)-2-(4-benzoyl-6-oxo-hexahydro-pyrrolo[3,2-b]pyrrole-1-yl)-1-benzylsulfanylmethyl-2-oxo-ethyl]-amide]
< 5 | – | CC(C)C[C@H](NC(=O)c1ccc(Oc2ccccc2)cc1)C(=O)N1CC[C@@H]2[C@H]1C(=O)CN2C(=O)c1cccc(S(C)(=O)=O)c1 [Example 41, (3aR,6aS)-N-{(1S)-1-[4-(3-Methanesulfonyl-benzoyl)-6-oxo-hexahydro-pyrrolo[3,2-b]pyrrole-1-carbonyl]-3-methyl-butyl}-4-phenoxy-benzamide]
< 5 | < 5 | O=C(N[C@@H](Cc1ccc(O)cc1)C(=O)N1CC[C@@H]2[C@H]1C(=O)CN2C(=O)c1cccc2ccccc12)c1cccc2ccccc12 [Example 301, (3aR,6aS)-Naphthalene-1-carboxylic acid {(1S)-1-(4-hydroxy-benzyl)-2-[4-(naphthalene-1-carbonyl)-6-oxo-hexahydro-pyrrolo[3,2-b]pyrrol-1-yl]-2-oxo-ethyl}-amide]
< 5 | – | O=C(N[C@@H](CSCc1ccccc1)C(=O)N1CC[C@@H]2[C@H]1C(=O)CN2C(=O)c1ccccc1)c1cc2ccccc2s1 [Example 252, (3aR,6aS)-Benzo[b]thiophene-2-carboxylic acid [(1R)-2-(4-benzoyl-6-oxo-hexahydro-pyrrolo[3,2-b]pyrrol-1-yl)-1-benzylsulfanylmethyl-2-oxo-ethyl]-amide]
< 5 | – | CC(C)C[C@H](NC(=O)c1ccc(Oc2ccccc2)cc1)C(=O)N1CC[C@@H]2[C@H]1C(=O)CN2C(=O)c1ccccc1S(C)(=O)=O [Example 40, (3aR,6aS)-N-{(1S)-1-[4-(2-Methanesulfonyl-benzoyl)-6-oxo-hexahydro-pyrrolo[3,2-b]pyrrole-1-carbonyl]-3-methyl-butyl}-4-phenoxy-benzamide]
< 5 | – | CS(=O)(=O)c1ccccc1C(=O)N1CC(=O)[C@@H]2[C@H]1CCN2C(=O)[C@H](CC1CCCCC1)NC(=O)C(c1ccccc1)c1ccccc1 [Example 279, (3aR,6aS)-N-{(1S)-1-Cyclohexylmethyl-2-[4-(2-methanesulfonyl-benzoyl)-6-oxo-hexahydro-pyrrolo[3,2-b]pyrrole-1-yl]-2-oxo-ethyl}-2,2-diphenyl-acetamide]
< 5 | < 5 | O=C(N[C@@H](Cc1ccc(O)cc1)C(=O)N1CC[C@@H]2[C@H]1C(=O)CN2C(=O)C12CC3CC(CC1C3)C2)c1cccc(Br)c1 [Example 308, (3aR,6aS)-3-Bromo-N-[(1S)-2-[4-(hexahydro-2,5-methano-pentalene-3a-carbonyl)-6-oxo-hexahydro-pyrrolo[3,2-b]pyrrole-1-yl]-1-(4-hydroxy-benzyl)-2-oxo-ethyl]-benzamide]
< 5 | < 5 | CC(C)C[C@H](NC(=O)c1ccc([N+](=O)[O-])cc1)C(=O)N1CC[C@@H]2[C@H]1C(=O)CN2C(=O)c1cccc(S(C)(=O)=O)c1 [Example 58, (3aR,6aS)-N-{(1S)-1-[4-(3-Methanesulfonyl-benzoyl)-6-oxo-hexahydro-pyrrolo[3,2-b]pyrrole-1-carbonyl]-3-methyl-butyl}-4-nitro-benzamide]
< 5 | < 5 | CS(=O)(=O)c1cccc(C(=O)N2CC(=O)[C@@H]3[C@H]2CCN3C(=O)[C@H](Cc2ccc(O)cc2)NC(=O)c2cccc(Br)c2)c1 [Example 304, (3aR,6aS)-3-Bromo-N-{(1S)-1-(4-hydroxy-benzyl)-2-[4-(3-methanesulfonyl-benzoyl)-6-oxo-hexahydro-pyrrolo[3,2-b]pyrrole-1-yl]-2-oxo-ethyl}-benzamide]
< 5 | < 5 | Cc1cccc(C(=O)N2CC(=O)[C@@H]3[C@H]2CCN3C(=O)[C@H](CC(C)C)NC(=O)c2ccc(N(C)C)cc2)c1 [Example 54, (3aR,6aS)-4-Dimethylamino-N-{(1S)-3-methyl-1-[4-(3-methyl-benzoyl)-6-oxo-hexahydro-pyrrolo[3,2-b]pyrrole-1-carbonyl]-butyl}-benzamide]
